According to US11939609B2, “Rewiring aberrant cancer signaling to a therapeutic effector response with a synthetic two-component system” (The Board of Trustees of the Leland Stanford Junior …, priority 2017, dated 2024):

Key:
[1] = system: BT-474, H1975, MCF-7, MCF-10A and MRC-5 cells; details: 10 μM carboplatin + 10 μM paclitaxel; 10 μM lapatinib
MRC5 cells = assay: Caspase-3 activity assay (fluorescent indicator imaging); format: cell-based; details: non-cancerous lung fibroblast line
From the text: (§1) To package lentivirus, HEK293T cells at ˜70% confluency were transfected with psPAX2, pMD2.G, and pLL3.7 plasmids using Lipofectamine 2000 (Life Technologies). Two days following transfection, viral supernatant was filtered with a 0.45 μm PES filter before using to infect target cells. rAAVdj-CAG-RASER1C-mCardinal-BID and rAAVdj-mCardinal were produced at the Stanford Gene Vector and Virus Core (Stanford University). Virus infected cells were neither sorted nor purified prior to obtaining the results shown, to remain close to the actual use scenario.
(§2) NucView 488 Caspase-3 substrate (Biotium) and Hoechst 33342 (Invitrogen) were diluted into culture media to final concentrations of 1 μM each. After 1 h of incubation, cells were imaged with the Axiovert 200M with a 10×0.5-NA air objective.

MCF10A cells = assay: as above; format: cell-based; details: non-cancerous breast epithelium line
From the text: as §1, §2

CS(=O)(=O)CCNCc1ccc(-c2ccc3ncnc(Nc4ccc(OCc5cccc(F)c5)c(Cl)c4)c3c2)o1 [Lapatinib, lapatinib]
cytotoxicity across ErbB-hyperactive and ErbB-normal cell lines [1]: varied by cell line, but did not consistently correlate with ErbB status

CC(=O)O[C@H]1C(=O)[C@@]2(C)[C@H]([C@H](OC(=O)c3ccccc3)[C@]3(O)C[C@H](OC(=O)[C@H](O)[C@@H](NC(=O)c4ccccc4)c4ccccc4)C(C)=C1C3(C)C)[C@]1(OC(C)=O)CO[C@@H]1C[C@@H]2O [paclitaxel]
apoptosis (caspase-3 fluorescent indicator) (MRC5 cells): apoptosis is induced by paclitaxel | apoptosis (caspase-3 fluorescent indicator) (MCF10A cells): apoptosis is induced by paclitaxel
